Reference: PubChem BioAssay AID248 (DTP/NCI, 2004)
Several values for one entry are separate records, joined by “and”; a condition that tells them apart may be missing. Identical values can stand only once. Toxic doses and inconclusive results are not listed. Rule as the data show it: active = T/C of 150% or more; inactive = T/C below 125%.

Tested on: L1210 leukemia ip in BDF1 mice, survival T/C
Assay: NCI In Vivo Anticancer Drug Screen. Data for tumor model L1210 Leukemia (intraperitoneal) in B6D2F1 (BDF1) mice
Conditions: endpoint: mean survival time, higher = longer survival
How it was run: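 Tumor cells were implanted, animals were treated, and survival was followed. The result divides the treated measurement by the vehicle-control measurement.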

[1] = dose: 100.0 mg/kg/injection, schedule: Q04DX003 (ip), vehicle: saline with Tween-80
[2] = dose: 200.0 mg/kg/injection, schedule: Q04DX003 (ip), vehicle: saline with Tween-80
[3] = dose: 400.0 mg/kg/injection, schedule: Q04DX003 (ip), vehicle: saline with Tween-80
[4] = dose: 50.0 mg/kg/injection, schedule: Q01DX009 (ip), vehicle: saline
[5] = dose: 100.0 mg/kg/injection, schedule: Q01DX009 (ip), vehicle: saline
[6] = dose: 100.0 mg/kg/injection, schedule: Q04DX003 (ip), vehicle: saline
[7] = dose: 200.0 mg/kg/injection, schedule: Q04DX003 (ip), vehicle: saline
[8] = dose: 100.0 mg/kg/injection, schedule: Q04DX002 (ip), vehicle: Klucel (hydroxypropylcellulose) (HPC)
[9] = dose: 200.0 mg/kg/injection, schedule: Q04DX002 (ip), vehicle: Klucel (hydroxypropylcellulose) (HPC)
[10] = dose: 400.0 mg/kg/injection, schedule: Q04DX002 (ip), vehicle: Klucel (hydroxypropylcellulose) (HPC)
[11] = dose: 100.0 mg/kg/injection, schedule: Q01DX009 (ip), vehicle: Klucel (hydroxypropylcellulose) (HPC)
[12] = dose: 200.0 mg/kg/injection, schedule: Q01DX009 (ip), vehicle: Klucel (hydroxypropylcellulose) (HPC)
[13] = dose: 400.0 mg/kg/injection, schedule: Q01DX009 (ip), vehicle: Klucel (hydroxypropylcellulose) (HPC)
[14] = dose: 100.0 mg/kg/injection, schedule: Q01DX001 (ip), vehicle: saline
[15] = dose: 200.0 mg/kg/injection, schedule: Q01DX001 (ip), vehicle: saline
[16] = dose: 200.0 mg/kg/injection, schedule: Q04DX003 (ip), vehicle: Klucel (hydroxypropylcellulose) (HPC)
[17] = dose: 100.0 mg/kg/injection, schedule: Q01DX009 (ip), vehicle: saline with Tween-80
[18] = dose: 200.0 mg/kg/injection, schedule: Q01DX009 (ip), vehicle: saline with Tween-80

Measured: T/C

CN(C)/N=C/c1ccccc1C(=O)O
inactive: dose: 50.0 mg/kg/injection, schedule: Q04DX003 (ip), vehicle: saline with Tween-80 101 % of control | [1] 97 % of control | [2] 96 % of control | [3] 106 % of control

C=C(C)CN
inactive: [4] 109 % of control | [5] 117 % of control | [6] 93 % of control | [7] 106 % of control

C=C(CCC(=O)OC)C1=C(C)CC2OC(=O)C(=C)C2C1 (stereo not drawn)
inactive: dose: 50.0 mg/kg/injection, schedule: Q04DX002 (ip), vehicle: saline 120 % of control | dose: 100.0 mg/kg/injection, schedule: Q04DX002 (ip), vehicle: saline 113 % of control | dose: 200.0 mg/kg/injection, schedule: Q04DX002 (ip), vehicle: saline 100 % of control

O=C(Nc1ccc(Br)cc1)C(Br)C(Br)c1ccccc1 (stereo not drawn)
inactive: [8] 98 % of control | [9] 88 % of control | [10] 98 % of control

CCOC(=O)c1ccc(NC(=O)Oc2ccccc2OCC)cc1
inactive: [11] 97 % of control | [12] 95 % of control | [13] 90 % of control

N#CC1CN2c3ccc4ccccc4c3CCC2C1=O (stereo not drawn)
inactive: dose: 50.0 mg/kg/injection, schedule: Q01DX001 (ip), vehicle: saline 106 % of control | [14] 104 % of control | [15] 104 % of control

CCOC(=O)c1cc(Cl)c(O)c(Cl)c1
inactive: dose: 25.0 mg/kg/injection, schedule: Q01DX009 (ip), vehicle: gum acacia 100 % of control | dose: 50.0 mg/kg/injection, schedule: Q01DX009 (ip), vehicle: gum acacia 98 % of control | dose: 100.0 mg/kg/injection, schedule: Q01DX009 (ip), vehicle: gum acacia 98 % of control and 100 % of control | dose: 100.0 mg/kg/injection, schedule: Q04DX003 (ip), vehicle: Klucel (hydroxypropylcellulose) (HPC) 93 % of control | [16] 103 % of control | dose: 400.0 mg/kg/injection, schedule: Q04DX003 (ip), vehicle: Klucel (hydroxypropylcellulose) (HPC) 95 % of control

CC(=O)OCCn1c([N+](=O)[O-])cnc1/C=[N+](\[O-])C1CCCCC1
inactive: [8] 107 % of control | [9] 100 % of control | [10] 103 % of control

C=C1C(=O)OC2C3=C(C)C(=O)CC3C3(C)CC3C12 (stereo not drawn)
inactive: dose: 50.0 mg/kg/injection, schedule: Q01DX001 (ip), vehicle: water 103 % of control

CCOC(=O)c1ccc(NC(=O)Oc2ccccc2F)cc1
inactive: [11] 91 % of control | [12] 98 % of control | [13] 96 % of control

CCCC(C)C(=O)Nc1cccc(OC(=O)NC(C)(C)C)c1 (stereo not drawn)
inactive: [17] 92 % of control | [18] 89 % of control | dose: 400.0 mg/kg/injection, schedule: Q01DX009 (ip), vehicle: saline with Tween-80 87 % of control

Cc1cc[n+](Cc2ccc([N+](=O)[O-])cc2)cc1
inactive: dose: 25.0 mg/kg/injection, schedule: Q01DX009 (ip), vehicle: saline 94 % of control | [4] 89 % of control | dose: 50.0 mg/kg/injection, schedule: Q04DX003 (ip), vehicle: saline 101 % of control | [14] 96 % of control | [5] 93 % of control | [6] 98 % of control | [15] 100 % of control

Cc1ccc(OCCOc2ccc(N)cc2)cc1
inactive: dose: 100.0 mg/kg/injection, schedule: Q04DX003 (ip), vehicle: alcohol 92 % of control | dose: 200.0 mg/kg/injection, schedule: Q04DX003 (ip), vehicle: alcohol 95 % of control | dose: 400.0 mg/kg/injection, schedule: Q04DX003 (ip), vehicle: alcohol 90 % of control

CCCC(CCC)OC(=O)C(O)c1ccccc1 (stereo not drawn)
inactive: dose: 100.0 mg/kg/injection, schedule: Q01DX001 (ip), vehicle: acetone 94 % of control | dose: 200.0 mg/kg/injection, schedule: Q01DX001 (ip), vehicle: acetone 94 % of control | dose: 400.0 mg/kg/injection, schedule: Q01DX001 (ip), vehicle: acetone 100 % of control

CC(NC(=O)OCc1ccccc1)C(=O)Oc1cc(Cl)c(Cl)cc1Cl (stereo not drawn)
inactive: [14] 92 % of control | [5] 95 % of control | [6] 91 % of control | [15] 97 % of control | dose: 200.0 mg/kg/injection, schedule: Q01DX009 (ip), vehicle: saline 93 % of control | [16] 87 % of control | [7] 91 % of control | dose: 400.0 mg/kg/injection, schedule: Q01DX001 (ip), vehicle: saline 92 % of control | dose: 400.0 mg/kg/injection, schedule: Q01DX009 (ip), vehicle: saline 92 % of control

CCCCCC/C(C)=N/O
inactive: [17] 94 % of control | [1] 106 % of control | [18] 103 % of control | [2] 95 % of control | [3] 98 % of control

CC(N=CN(C)C)c1cccc2ccccc12 (stereo not drawn)
inactive: dose: 75.0 mg/kg/injection, schedule: Q01DX009 (ip), vehicle: saline with Tween-80 102 % of control | [1] 97 % of control | dose: 150.0 mg/kg/injection, schedule: Q01DX009 (ip), vehicle: saline with Tween-80 112 % of control | [2] 102 % of control | dose: 300.0 mg/kg/injection, schedule: Q01DX009 (ip), vehicle: saline with Tween-80 112 % of control
